Test results published in article PMC5034536, “Molecular insights into substrate recognition and catalytic mechanism of the chaperone and FKBP peptidyl-prolyl isomerase SlyD” (BMC Biology, 2016).
Values joined by “and” are separate entries in the source; they are usually repeats but may differ in a detail not shown here. Equal values may be shown once. Read-outs that look alike come from different tables or passages of the source. No end group written: not given here.

Columns and labels:
[1] = target: TtSlyDΔIF (IF domain replaced by the flap loop from human FKBP12) (Thermus thermophilus, UniProt Q5SLE7); format: binding; conditions: ITC one-site model (FKBP domain), 25 °C; for Kd: read-out: KD2
[2] = target: T1, TtSlyDFL (full-length SlyD from Thermus thermophilus) (Thermus thermophilus, UniProt Q5SLE7); assay: ITC binding of peptides to full-length TtSlyD; conditions: for ΔH1 / –T · ΔS1 / N1: site 1 (IF domain)
T1 sequence (Q5SLE7 1-149): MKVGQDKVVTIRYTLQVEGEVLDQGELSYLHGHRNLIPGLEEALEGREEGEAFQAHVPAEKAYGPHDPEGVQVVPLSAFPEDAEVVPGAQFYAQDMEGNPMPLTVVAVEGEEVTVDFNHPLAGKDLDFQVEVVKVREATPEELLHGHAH
Experimental: ITC measurements were performed on iTC200 or VP-ITC instruments (GE Healthcare, Chalfont St. Giles, UK). The calorimetric cell (with a total cell volume of 220 μl in the iTC200, or 1400 μl in the VP-ITC) contained 50–200 μM TtSlyDFL dissolved in 20 mM HEPES, 100 mM NaCl, pH 7.5. Peptide samples of 700–2000 μM were titrated into the cell at 20 °C (VP-ITC) or 25 °C (iTC200). The heat generated after each ligand injection was obtained by integration of the calorimetric signal. Resulting binding isotherms were analyzed according to a one-site or two-site binding site model using the Origin software (OriginLab Corp., Northampton, MA, USA).

TtSlyDΔIF = assay: Michaelis-Menten analysis with S2-P25A peptide by NMR lineshape analysis; format: biochemical, Thermus thermophilus; conditions: 25 °C
Experimental: (§1) Having validated the method, we next turned to the longer unmodified peptides of interest here. […] The ^13C shifts of proline in the S2-P25A peptide show the same characteristics as an isolated proline amino acid. […] We determined apparent rate constants for TtSlyDFL and TtSlyDΔIF as a function of peptide concentration (Fig. 7b). The resulting kcat/KM value was 368 ± 4 μM^–1s^–1 for TtSlyDFL, which is a factor of 100–1000 higher compared to results obtained previously for various members of the SlyD family using tetrapeptides or unfolded proteins, and even exceeds those generally reported for FKBPs and other PPIases. […] However, the difference in kcat/KM between TtSlyDFL and TtSlyDΔIF is much smaller than what has been observed using protein substrates, and may simply relate to the lower binding affinity of TtSlyDΔIF relative to TtSlyDFL (in this scenario, KM would be larger for TtSlyDΔIF). In the case of TtSlyDFL we could separate the two parameters, yielding kcat = (0.7 ± 0.1) 10^6 s^–1 and KM = 2.0 ± 0.4 mM.
(§2) Lineshape analysis was performed using MATLAB.
(§3) Activity studies using the 15-residue-long S2-P25A peptide utilized a sample with a uniformly ^13C-labeled proline residue. ^1H–^13C HSQC experiments were used to separate the peptide signals in two dimensions, such that the cis and trans forms could both be detected without overlap. […] One-dimensional ^1H slices of the β and γ protons for the cis and trans forms were extracted from the two-dimensional spectrum, and lineshape analysis was applied. Michaelis-Menten-like studies were performed using a fixed concentration of TtSlyDFL of 0.2 μM and peptide concentrations ranging from 10 to 1000 μM.

TtSlyDFL = assay: as above; format: biochemical, Thermus thermophilus; conditions: 25 °C
Experimental: as §1, §2, §3

[3] = Relative population of the cis form of the peptide by NMR; format: physicochemical; conditions: free S2-P25A peptide with 13C-labeled proline (P29); comparison of cis and trans NMR intensities; 25 °C
Experimental: as §1
Activity studies using the 15-residue-long S2-P25A peptide utilized a sample with a uniformly ^13C-labeled proline residue. ^1H–^13C HSQC experiments were used to separate the peptide signals in two dimensions, such that the cis and trans forms could both be detected without overlap. […]

[4] = ITC two-site model, site 2 (FKBP domain) stoichiometry, 25 °C
[5] = ITC two-site model, site 2 (FKBP domain), 25 °C
[6] = ITC two-site model, 20 °C, wild-type TtSlyDFL
[7] = ITC two-site model, site 2 (FKBP domain), 20 °C, wild-type TtSlyDFL
[8] = ITC single binding site model, 25 °C
[9] = ITC two-site model, 25 °C, 5 % DMSO
[10] = ITC two-site model, site 2 (FKBP domain), 25 °C, 5 % DMSO
[11] = S2-P25A peptide as substrate, NMR lineshape analysis

With TRYWNPKMKEFIFGA-NH2 [S2-P29E] the N2 [1] was 0.69 ± 0.03, the ΔH2 [1] was “–10.8 ± 0.27 kcal/mol” and the “–T · ΔS2” value [1] was 4.2 kcal/mol. The Kd [1] was 13.8 ± 0.88 µM, the ΔH1 ([2]; ITC two-site model, 25 °C) was “–15.8 ± 0.16 kcal/mol” and the “–T · ΔS1” value ([2]; ITC two-site model, 25 °C) was 7.2 kcal/mol. The N2 [2, 4] was 1.02 ± 0.04, the ΔH2 [2, 5] was “–2.7 ± 0.48 kcal/mol” and the “–T · ΔS2” value [2, 5] was “–4.5 kcal/mol”.
In the case of KMKPFIFGARNKVHI-NH2 [S2-plus2], the ΔH1 ([2]; ITC two-site model, 25 °C) is reported as “–13.1 ± 0.14 kcal/mol”, the “–T · ΔS1” value ([2]; ITC two-site model, 25 °C) is reported as 3.9 kcal/mol and the N2 [2, 4] is reported as 0.75 ± 0.04. The ΔH2 [2, 5] was “–8.4 ± 0.39 kcal/mol” and the “–T · ΔS2” value [2, 5] was 1.2 kcal/mol.
For WNPKMKPFIFGARNK-NH2 [S2-plus1], the ΔH1 ([2]; ITC two-site model, 25 °C) was “–11.4 ± 0.13 kcal/mol”, the “–T · ΔS1” value ([2]; ITC two-site model, 25 °C) was 2.3 kcal/mol and the N2 [2, 4] was 0.94 ± 0.03. For the same substance, the ΔH2 [2, 5] was “–7.8 ± 0.23 kcal/mol” and the “–T · ΔS2” value [2, 5] was 0.4 kcal/mol.
In the case of GHQTRYWNPKMKPFI-NH2 [S2-minus1], the ΔH1 ([2]; ITC two-site model, 25 °C) is reported as “–16.6 ± 0.12 kcal/mol”, the “–T · ΔS1” value ([2]; ITC two-site model, 25 °C) is reported as 8.2 kcal/mol and the N2 [2, 4] is reported as 0.82 ± 0.02. The ΔH2 [2, 5] was “–11.1 ± 0.29 kcal/mol” and the “–T · ΔS2” value [2, 5] was 4.1 kcal/mol.
With YWNPKMKPFIF-NH2 [S2-short4] the N1 [2, 6] was 0.73 ± 0.24, the ΔH1 [2, 6] was “–10.7 ± 2.33 kcal/mol” and the “–T · ΔS1” value [2, 6] was 2.7 kcal/mol. The N2 [2, 7] was 0.87 ± 0.23, the ΔH2 [2, 7] was “–6.3 ± 3.02 kcal/mol” and the “–T · ΔS2” value [2, 7] was “–0.9 kcal/mol”.
With SGLVTRGS-NH2 [SlpA linker P5T] the Kd [2] was 130 ± 20 µM, the N2 [2, 8] was 1.76 ± 0.12 and the ΔH2 [2, 8] was “–0.9 ± 0.10 kcal/mol”. For the same substance, the “–T · ΔS2” value [2, 8] was “–4.4 kcal/mol”.
In the case of VHFGHQTRYWNPKMK-NH2 [S2-minus2], the ΔH1 ([2]; ITC two-site model, 25 °C) is reported as “–16.1 ± 0.21 kcal/mol”, the “–T · ΔS1” value ([2]; ITC two-site model, 25 °C) is reported as 8.1 kcal/mol and the N2 [2, 4] is reported as 0.99 ± 0.06. For the same substance, the ΔH2 [2, 5] was “–4.3 ± 0.92 kcal/mol” and the “–T · ΔS2” value [2, 5] was “–2.3 kcal/mol”.
In the case of RYWNPKMKPFIFG-NH2 [S2-short2], the N1 [2, 6] is reported as 0.72 ± 0.03, the ΔH1 [2, 6] is reported as “–9.7 ± 0.21 kcal/mol” and the “–T · ΔS1” value [2, 6] is reported as 0.9 kcal/mol. The N2 [2, 7] was 0.91 ± 0.02, the ΔH2 [2, 7] was “–5.5 ± 0.34 kcal/mol” and the “–T · ΔS2” value [2, 7] was “–1.9 kcal/mol”.
In the case of KAGVHFGHQTRYWNP-NH2 [S2-minus3], the ΔH1 ([2]; ITC two-site model, 25 °C) is reported as “–17.0 ± 0.73 kcal/mol”, the “–T · ΔS1” value ([2]; ITC two-site model, 25 °C) is reported as 9.4 kcal/mol and the N2 [2, 4] is reported as 1.17 ± 0.06. For the same substance, the ΔH2 [2, 5] was “–2.1 ± 1.41 kcal/mol” and the “–T · ΔS2” value [2, 5] was “–4.8 kcal/mol”.
For TRYWNAKMKEFIFGA-NH2 [S2-P25A/P29E], the N2 ([1]; 5 % DMSO) was 0.84 ± 0.06, the ΔH2 ([1]; 5 % DMSO) was “–6.3 ± 0.58 kcal/mol” and the “–T · ΔS2” value ([1]; 5 % DMSO) was 0.1 kcal/mol. The Kd ([1]; 5 % DMSO) was 29 ± 4.62 µM, the N1 [2, 9] was 1.13 ± 0.03 and the ΔH1 [2, 9] was “–14.1 ± 0.33 kcal/mol”. The “–T · ΔS1” value [2, 9] was 6.1 kcal/mol, the N2 [2, 10] was 1.09 ± 0.24 and the ΔH2 [2, 10] was “–5.9 ± 1.91 kcal/mol”. The “–T · ΔS2” value [2, 10] was “–0.1 kcal/mol”.
With TRYWNNKMKNFIFGA-NH2 [S2-P25N/P29N] the N1 [2, 9] was 0.93 ± 0.02, the ΔH1 [2, 9] was “–16.8 ± 0.12 kcal/mol” and the “–T · ΔS1” value [2, 9] was 7.8 kcal/mol. The N2 [2, 10] was 1.18 ± 0.18, the ΔH2 [2, 10] was “–2.3 ± 0.33 kcal/mol” and the “–T · ΔS2” value [2, 10] was “–4.4 kcal/mol”.
With TRYANPKMKPFIFGA-NH2 [S2-W23A] the N2 [1] was 0.77 ± 0.02, the ΔH2 [1] was “–8.1 ± 0.25 kcal/mol” and the “–T · ΔS2” value [1] was 1.6 kcal/mol. The Kd [1] was 17.1 ± 1.13 µM, the ΔH1 ([2]; ITC two-site model, 25 °C) was “–15.8 ± 0.24 kcal/mol” and the “–T · ΔS1” value ([2]; ITC two-site model, 25 °C) was 7.5 kcal/mol. The N2 [2, 4] was 0.91 ± 0.40, the ΔH2 [2, 5] was “–2.3 ± 0.97 kcal/mol” and the “–T · ΔS2” value [2, 5] was “–4.2 kcal/mol”.
For TRYWNAKMKPFIFGA-NH2 [S2-P25A], the kcat/KM (TtSlyDΔIF; S2-P25A as substrate (cis concentration), 0.2 μM enzyme) was 2.5 10^8 M^−1s^−1, the kcat/KM (TtSlyDΔIF; [11]) was 248 ± 1 μM^–1s^–1 and the kcat/KM (TtSlyDFL; S2-P25A as substrate (cis concentration), 0.2 μM enzyme, Michaelis-Menten fitting) was 3.68 ± 0.04 10^8 M^−1s^−1 and 3.7 10^8 M^−1s^−1. The kcat (TtSlyDFL; S2-P25A as substrate) was 0.7 ± 0.1 10^6 s^–1, the kcat/KM (TtSlyDFL; [11]) was 368 ± 4 μM^–1s^–1 and the N2 [1] was 0.91 ± 0.01. The ΔH2 [1] was “–11.7 ± 0.24 kcal/mol”, the “–T · ΔS2” value [1] was 5.0 kcal/mol and the Kd [1] was 12.1 ± 0.76 µM. For the same substance, the ΔH1 ([2]; ITC two-site model, 25 °C) was “–16.6 ± 0.16 kcal/mol”, the “–T · ΔS1” value ([2]; ITC two-site model, 25 °C) was 7.2 kcal/mol and the N2 [2, 4] was 1.02 ± 0.04. For the same substance, the ΔH2 [2, 5] was “–8.5 ± 0.82 kcal/mol”, the “–T · ΔS2” value [2, 5] was 1.5 kcal/mol and the “relative population of the cis form (cis content)” value [3] was 14.5 ± 1%.
